Results: US11840686B2, “Modulation of prekallikrein (PKK) expression” (Ionis Pharmaceuticals, Inc., priority 2013, dated 2023)
Strand notation (5' to 3'): a small letter for the sugar, then the base; units joined by * are phosphorothioate-linked, units joined directly phosphodiester-linked; [ ] holds rarer units or linkages, { } end groups; capitals alone tell only the bases. e = 2'-O-(2-methoxyethyl) (MOE); k = constrained ethyl (cEt); [5mC] = 5-methylcytosine; d = 2'-deoxy (DNA)

Tested on: human PKK mRNA
Assay: Antisense inhibition of human PKK mRNA in HepaRG cells, 1,000 nM, MOE/deoxy/cEt oligonucleotides (Example 3)
Type: cell-based
How it was run: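 Readout is percent PKK mRNA reduction against untreated controls, by real-time PCR (RTS3454) adjusted for total RNA via RIBOGREEN. Oligonucleotides, phosphorothioate gapmers of 16 nucleosides with cEt, MOE and deoxy sugars, were delivered at 1,000 nM by electroporation to 20,000 HepaRG cells/well for roughly 24 h.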

[1] = Table 28, HepaRG cells, 1,000 nM antisense oligonucleotide, human PKK mRNA
[2] = HepaRG cells, electroporation with 1,000 nM antisense oligonucleotide, approximately 24 hours, primer probe set RTS3454, relative to untreated control cells, experiment of Table 24
[3] = Table 21 experiment, HepaRG cells, electroporation with 1,000 nM antisense oligonucleotide, approx. 24 hours, PKK mRNA by RT-PCR (RTS3454), relative to untreated control cells
[4] = Table 19, HepaRG cells, electroporation with 1,000 nM antisense oligonucleotide, approximately 24 hours, PKK mRNA by RT-PCR (RTS3454), relative to untreated control cells
[5] = HepaRG cells, electroporation with 1,000 nM antisense oligonucleotide, approx. 24 hours, PKK mRNA by RT-PCR (RTS3454), relative to untreated control cells, Table 26 experiment
[6] = PKK mRNA, HepaRG cells, 1,000 nM antisense oligonucleotide, Table 31
[7] = Table 27, HepaRG cells, 1,000 nM antisense oligonucleotide, human PKK mRNA
[8] = HepaRG cells, 1,000 nM antisense oligonucleotide, Table 29
[9] = Table 30, human PKK mRNA, HepaRG cells, 1,000 nM antisense oligonucleotide
[10] = HepaRG cells, electroporation with 1,000 nM antisense oligonucleotide, approximately 24 hours, primer probe set RTS3454, relative to untreated control cells, experiment of Table 23
[11] = Table 20, HepaRG cells, electroporation with 1,000 nM antisense oligonucleotide, approximately 24 hours, PKK mRNA by RT-PCR (RTS3454), relative to untreated control cells
[12] = Table 22 experiment, HepaRG cells, electroporation with 1,000 nM antisense oligonucleotide, approx. 24 hours, PKK mRNA by RT-PCR (RTS3454), relative to untreated control cells
[13] = HepaRG cells, electroporation with 1,000 nM antisense oligonucleotide, approx. 24 hours, PKK mRNA by RT-PCR (RTS3454), relative to untreated control cells, Table 25 experiment

Substance: 548459 (e[5mC]*eA*kA*d[5mC]*dT*dA*dT*dA*dA*d[5mC]*dA*dG*dT*kA*kT*e[5mC]; antisense) [compound 548459]
- % inhibition [1]: 26%

Substance: 548057 (e[5mC]*eA*kT*dA*dT*dT*dG*dG*dT*dT*dT*dT*dT*kG*kG*eA; antisense) [compound 548057]
- % inhibition [2]: 49%

Substance: 547828 (e[5mC]*e[5mC]*kT*dG*dT*dT*d[5mC]*dG*dA*dT*dG*dT*dA*k[5mC]*kT*eT; antisense) [compound 547828]
- % inhibition [3]: 63%

Substance: 547815 (eA*eA*k[5mC]*dT*dT*dG*d[5mC]*dT*dG*dG*dA*dA*dG*kA*kA*eA; antisense) [compound 547815]
- % inhibition [3]: 3%

Substance: 548134 (e[5mC]*eA*kG*dA*dA*dT*dT*dT*dG*dA*d[5mC]*dT*dT*kG*kA*eA; antisense) [compound 548134]
- % inhibition [4]: 17%

Substance: 548302 (eG*e[5mC]*k[5mC]*dA*dT*dT*dT*dT*dA*dT*d[5mC]*d[5mC]*d[5mC]*kT*kG*eA; antisense) [compound 548302]
- % inhibition [5]: 71%

Substance: 548647 (antisense e[5mC]*eA*k[5mC]*dG*dG*d[5mC]*dA*dA*dG*dT*d[5mC]*dG*d[5mC]*kG*kG*eG) [compound 548647]
- % inhibition [6]: 39%

Substance: 548307 (eT*eT*k[5mC]*dT*dG*d[5mC]*dA*dA*d[5mC]*dT*dG*dA*dG*k[5mC]*k[5mC]*eT; antisense) [compound 548307]
- % inhibition [7]: 6%

Substance: 548469 (eT*eT*k[5mC]*d[5mC]*d[5mC]*dT*dA*d[5mC]*d[5mC]*d[5mC]*d[5mC]*dT*dG*kG*kT*eA; antisense) [compound 548469]
- % inhibition [1]: 0%

Substance: 548578 (e[5mC]*eA*kT*dG*dG*d[5mC]*dT*dA*dT*dT*dG*d[5mC]*dT*kT*k[5mC]*e[5mC]; antisense) [compound 548578]
- % inhibition [8]: 73%

Substance: 548445 (antisense e[5mC]*e[5mC]*kT*dA*dT*dG*dT*d[5mC]*dA*d[5mC]*dT*dG*dT*kA*k[5mC]*e[5mC]) [compound 548445]
- % inhibition [9]: 62%

Substance: 547970 (antisense e[5mC]*eT*k[5mC]*d[5mC]*d[5mC]*dG*dG*dG*dT*dA*dA*dA*dT*kT*kT*eT) [compound 547970]
- % inhibition [10]: 42%

Substance: 547884 (e[5mC]*eG*kT*dG*dG*d[5mC]*dA*dT*dA*dT*dG*dA*dA*kA*kA*eA; antisense) [compound 547884]
- % inhibition [11]: 87%
- % inhibition [12]: 49%

Substance: 548330 (antisense eG*eA*k[5mC]*dT*dA*dG*d[5mC]*dT*dT*d[5mC]*dT*dA*d[5mC]*kT*kA*e[5mC]) [compound 548330]
- % inhibition [7]: 34%

Substance: 548177 (eA*eG*kA*dT*d[5mC]*dT*d[5mC]*dA*dG*dT*dT*dG*d[5mC]*kG*kA*e[5mC]; antisense) [compound 548177]
- % inhibition [13]: 45%

Substance: 548253 (antisense eT*eA*k[5mC]*dT*d[5mC]*dG*d[5mC]*d[5mC]*dT*dT*dT*dG*dT*kG*kA*eT) [compound 548253]
- % inhibition [5]: 8%

Substance: 547878 (antisense e[5mC]*eA*kA*d[5mC]*dA*d[5mC]*dT*dG*d[5mC]*dT*dA*dA*d[5mC]*k[5mC]*kT*eT) [compound 547878]
- % inhibition [12]: 62%

Substance: 548467 (e[5mC]*eA*kT*d[5mC]*dA*d[5mC]*dT*dG*dT*dA*d[5mC]*d[5mC]*dT*kA*kT*eA; antisense) [compound 548467]
- % inhibition [1]: 20%

Substance: 548527 (antisense eT*eG*kT*dT*dT*d[5mC]*dA*dA*dG*dT*dG*d[5mC]*d[5mC]*kA*kG*eA) [compound 548527]
- % inhibition [1]: 50%

Substance: 548531 (antisense eG*eT*k[5mC]*dA*dG*dA*dA*dG*dG*d[5mC]*d[5mC]*dT*d[5mC]*kT*kT*eA) [compound 548531]
- % inhibition [1]: 21%

Substance: 548360 (antisense e[5mC]*eA*kA*dG*dA*d[5mC]*dA*dT*d[5mC]*dA*dG*dT*dA*kG*k[5mC]*eT) [compound 548360]
- % inhibition [7]: 45%

Substance: 548224 (e[5mC]*e[5mC]*kA*dT*dA*dG*dA*d[5mC]*d[5mC]*d[5mC]*dA*dG*dA*kA*kT*e[5mC]; antisense) [compound 548224]
- % inhibition [13]: 20%

Substance: 547811 (eA*e[5mC]*k[5mC]*dT*d[5mC]*dA*dT*d[5mC]*dT*dG*dG*d[5mC]*dA*kG*kT*eA; antisense) [compound 547811]
- % inhibition [3]: 49%

Substance: 547987 (antisense eA*e[5mC]*kA*dG*d[5mC]*dG*dA*dA*dT*d[5mC]*dA*dT*d[5mC]*kT*kT*eT) [compound 547987]
- % inhibition [10]: 64%

Substance: 548204 (eT*e[5mC]*kT*dG*dA*d[5mC]*dT*dA*dG*dT*dG*dA*dA*kT*kG*eG; antisense) [compound 548204]
- % inhibition [13]: 25%

Substance: 548482 (eG*eG*k[5mC]*dA*dG*dT*dT*dA*dG*dG*d[5mC]*d[5mC]*dA*kG*kG*eA; antisense) [compound 548482]
- % inhibition [1]: 53%

Substance: 547801 (eT*eA*k[5mC]*dA*dT*dG*dG*dA*dA*dG*d[5mC]*dT*dA*k[5mC]*kA*eT; antisense) [compound 547801]
- % inhibition [3]: 11%

Substance: 548601 (eT*eT*kG*dG*dT*dG*dG*dT*dG*dG*dG*dA*dT*kT*kG*eG; antisense) [compound 548601]
- % inhibition [8]: 18%

Substance: 548194 (eG*e[5mC]*k[5mC]*dA*dA*d[5mC]*dA*dG*dT*dT*dT*d[5mC]*dA*kA*k[5mC]*eT; antisense) [compound 548194]
- % inhibition [13]: 61%

Substance: 548124 (antisense eT*eA*kG*dA*d[5mC]*dT*d[5mC]*dT*dG*dG*dA*d[5mC]*dT*kG*k[5mC]*eT) [compound 548124]
- % inhibition [4]: 51%

Substance: 548523 (antisense eG*eG*kT*dA*dA*dA*dT*d[5mC]*d[5mC]*dA*dT*d[5mC]*d[5mC]*k[5mC]*k[5mC]*eT) [compound 548523]
- % inhibition [1]: 44%

Substance: 548437 (antisense eT*eA*kT*dA*dT*d[5mC]*dA*d[5mC]*dT*dG*dT*dA*d[5mC]*k[5mC]*kT*eG) [compound 548437]
- % inhibition [9]: 74%

Substance: 548050 (eA*eG*kG*d[5mC]*dG*dA*dT*dA*dT*d[5mC]*dA*dT*dG*kA*kT*eT; antisense) [compound 548050]
- % inhibition [2]: 37%

Substance: 548037 (eA*eA*kT*dG*dT*d[5mC]*dT*dG*dA*d[5mC]*dA*dG*dA*kT*kT*eT; antisense) [compound 548037]
- % inhibition [2]: 70%

Substance: 548429 (antisense eT*eA*kT*dA*dA*d[5mC]*dT*dA*dT*dA*dA*d[5mC]*dA*kG*kT*eA) [compound 548429]
- % inhibition [9]: 0%

Substance: 548638 (antisense e[5mC]*e[5mC]*kT*d[5mC]*dA*dT*dT*dG*d[5mC]*dT*d[5mC]*d[5mC]*dA*k[5mC]*kT*eA) [compound 548638]
- % inhibition [6]: 26%

Substance: 548196 (e[5mC]*eA*kA*dT*dA*dT*dT*dG*dA*d[5mC]*dT*dT*dT*kG*kG*eG; antisense) [compound 548196]
- % inhibition [13]: 6%

Substance: 547933 (eT*e[5mC]*kG*dA*dT*dT*dT*dT*d[5mC]*d[5mC]*dA*dT*dA*k[5mC]*kA*eT; antisense) [compound 547933]
- % inhibition [10]: 44%

Substance: 548168 (eT*eT*kG*d[5mC]*dG*dA*d[5mC]*d[5mC]*dT*d[5mC]*dG*d[5mC]*dA*kT*kT*eG; antisense) [compound 548168]
- % inhibition [13]: 61%

Substance: 548151 (eG*eG*kG*d[5mC]*dT*dT*d[5mC]*dA*dG*d[5mC]*d[5mC]*dA*dG*kA*k[5mC]*eA; antisense) [compound 548151]
- % inhibition [13]: 35%

Substance: 548460 (e[5mC]*eT*kA*dT*dA*d[5mC]*d[5mC]*dA*d[5mC]*dG*dG*dT*dA*kA*k[5mC]*eT; antisense) [compound 548460]
- % inhibition [1]: 0%

Substance: 548569 (eA*e[5mC]*kT*d[5mC]*dA*dT*dT*dG*dG*dT*d[5mC]*dT*dA*k[5mC]*kA*eG; antisense) [compound 548569]
- % inhibition [8]: 41%

Substance: 548141 (eG*e[5mC]*kA*dG*dA*dT*dG*dA*dG*dG*dA*d[5mC]*d[5mC]*k[5mC]*k[5mC]*e[5mC]; antisense) [compound 548141]
- % inhibition [4]: 66%

Substance: 547812 (eG*eT*kG*d[5mC]*dA*d[5mC]*d[5mC]*dT*d[5mC]*dA*dT*d[5mC]*dT*kG*kG*e[5mC]; antisense) [compound 547812]
- % inhibition [3]: 51%

Substance: 548063 (eG*eT*kA*dT*dA*dA*dA*dT*dT*dG*dT*dG*d[5mC]*kT*kT*eG; antisense) [compound 548063]
- % inhibition [2]: 35%

Substance: 548284 (antisense e[5mC]*e[5mC]*k[5mC]*d[5mC]*d[5mC]*dT*dG*dT*dA*dG*dT*dT*dG*kG*k[5mC]*eT) [compound 548284]
- % inhibition [5]: 35%

Substance: 547865 (antisense eA*eA*kA*dA*dT*dT*dG*dA*d[5mC]*dT*d[5mC]*d[5mC]*dT*k[5mC]*kT*e[5mC]) [compound 547865]
- % inhibition [11]: 3%
- % inhibition [12]: 61%

Substance: 548133 (eA*eG*kA*dA*dT*dT*dT*dG*dA*d[5mC]*dT*dT*dG*kA*kA*e[5mC]; antisense) [compound 548133]
- % inhibition [4]: 23%
